Key:
[1] = test system: phosphorylation of 4EBP1 and S6 ribosomal protein (mTOR downstream targets); experiment: Western blotting of xenograft tumor and uninvolved muscle extracts for phosphorylation of mTOR downstream targets; format: in vivo, mouse; conditions: for phosphorylation of 4EBP1 and S6 (mTOR downstream targets): 20 mg/kg IP every 3 days for 30 days
Description: 2×10^6 cells in 0.2 mL total volume per mouse, from either Rh30 alveolar or RD embryonal cell lines, were injected orthotopically into the left hind leg gastrocnemius muscle of a SCID beige murine model. After 1 week, mice were assigned to control (n=8) or CCI-779 treatment groups (n=8). […] (FIG. 6C) CCI-779 was administered at 20 mg/kg/IP every 3 days for 30 days. Protein extracts from Rh30 and RD mouse xenograft tumors or uninvolved muscle were treated with CCI-779 or vehicle for 30 days and analyzed by Western blotting for S6 and 4EBP1 phosphorylation. […] 5. In vivo xenograft tumor model. Animal studies were performed in accordance with guidelines of the National Institutes of Health Animal Care and Use Committee. Female 4-6 week old beige-SCID mice were purchased from Charles River Laboratories (Wilmington, Mass.). Two million viable cells harvested from mid confluent cultures of either Rh30 alveolar or RD embryonal cells in 0.2 ml diluent (5% Tween-80, 5% polyethylene glycol-400 (Sigma, St. Louis, Mo.)) were injected orthotopically into the gastrocnemius muscle in the left hind leg, and after 1 week mice were randomly assigned to control (n=8) or CCI-779 treatment groups (n=8). Mice were treated IP every 3 days for 30 consecutive days with 20 mg/kg/IP of CCI-779 (Developmental Therapeutics Program, National Cancer Institute and Wyeth, Madison, N.J.) or vehicle alone. Tumor growth was measured every 3 days with calipers, and tumor volume was calculated by the formula V (mm^3)=a×b^2, where a is the longest tumor axis, and b is the shortest tumor axis. All mice were sacrificed by asphyxiation with CO2 and underwent necropsy for confirmation of tumor growth. Tumors were excised and snap frozen at -80° C. until analysis. […] Suppression of the mTOR pathway was monitored by measuring the phosphorylation of 4EBP1 and S6 ribosomal protein, which are well-established downstream targets of mTOR.

[2] = test system: RD embryonal cells xenograft; experiment: RD embryonal rhabdomyosarcoma orthotopic mouse xenograft, tumor growth; format: in vivo; conditions: SCID-beige mice, 20 mg/kg IP every 3 days for 30 days, vs vehicle, n=8, p=0.00008 (Student's t-test)
Description: (§1) 2×10^6 cells in 0.2 mL total volume per mouse, from either Rh30 alveolar or RD embryonal cell lines, were injected orthotopically into the left hind leg gastrocnemius muscle of a SCID beige murine model. After 1 week, mice were assigned to control (n=8) or CCI-779 treatment groups (n=8). […] (FIG. 6C) CCI-779 was administered at 20 mg/kg/IP every 3 days for 30 days. Protein extracts from Rh30 and RD mouse xenograft tumors or uninvolved muscle were treated with CCI-779 or vehicle for 30 days and analyzed by Western blotting for S6 and 4EBP1 phosphorylation. […] 5. In vivo xenograft tumor model. Animal studies were performed in accordance with guidelines of the National Institutes of Health Animal Care and Use Committee. Female 4-6 week old beige-SCID mice were purchased from Charles River Laboratories (Wilmington, Mass.). […] Tumor growth was measured every 3 days with calipers, and tumor volume was calculated by the formula V (mm^3)=a×b^2, where a is the longest tumor axis, and b is the shortest tumor axis. […] Suppression of the mTOR pathway was monitored by measuring the phosphorylation of 4EBP1 and S6 ribosomal protein, which are well-established downstream targets of mTOR.

[3] = test system: Rh30 alveolar cells xenograft; experiment: Rh30 alveolar rhabdomyosarcoma orthotopic mouse xenograft, tumor growth; format: in vivo; conditions: SCID-beige mice, 20 mg/kg IP every 3 days for 30 days, vs vehicle, n=8, p=0.0002 (Student's t-test)
Description: as §1

`CO[C@H]1C[C@@H]2CC[C@@H](C)[C@@](O)(O2)C(=O)C(=O)N2CCCC[C@H]2C(=O)O[C@H]([C@H](C)C[C@@H]2CC[C@@H](OC(=O)C(C)(CO)CO)[C@H](OC)C2)CC(=O)[C@H](C)/C=C(\C)[C@@H](O)[C@@H](OC)C(=O)[C@H](C)C[C@H](C)/C=C/C=C/C=C/1C` [CCI-779, 40-[3-hydroxy(hydroxymethyl)methylpropanoate]-rapamycin] was tested, and the “phosphorylation of 4EBP1 and S6 (mTOR downstream targets)” value ([1]; RD embryonal xenograft derived tumors) was “inhibited the phosphorylation of these downstream targets”, the “phosphorylation of 4EBP1 and S6 (mTOR downstream targets)” value ([1]; Rh30 alveolar xenograft derived tumors) was “inhibited the phosphorylation of these downstream targets” and the “phosphorylation of mTOR pathway substrates pS6 Ser235/236 and 4EBP1 Thr70” value ([1]; time dependent, non-involved muscle and tumor tissue, compared to actin (FIG. 6A)) was “inhibited phosphorylation of mTOR pathway substrates”. For the same compound, the “tumor growth / tumor volume measured with calipers” value (from here on “tumor growth / tumor volume”) [2] was “profoundly reduced the growth”, the “tumor growth / tumor volume” value ([2]; 20 mg/kg) was “less in the CCI-779 treatment group as compared to the vehicle alone” and the “tumor growth / tumor volume” value [3] was “profoundly reduced the growth”. For the same compound, the “tumor growth / tumor volume” value ([3]; 20 mg/kg) was “less in the CCI-779 treatment group as compared to the vehicle alone”.
